Results as given in US11679114B2, “Progestogen-only oral contraception” (Navad Life Sciences Pte, priority 2021, dated 2023).

Tests used:
Type in all cases: in vivo, human
[1] = test system: healthy, cyclic women; assay: Serum SHBG concentrations
Protocol: Serum SHBG concentrations were determined after ovulation in the pre-treatment cycle, on treatment day 55 (±1) and at the end-of-study examination. Multiple-dose PK parameters were investigated in approximately 15 subjects per dose group, 5 of them having a BMI≥30 kg/m^2. Blood samples for LNG determination were taken on treatment day 55 (±1) pre-dose and 0.5, 1, 2, 3, 4, 6 and 24 hours after dosing.
(§1) If ovulation was observed during treatment, the subsequent luteal phase was evaluated using the Landgren criterion, i.e. the luteal phase was considered adequate when P concentrations were >16 nmol/L during at least 5 days (Landgren et al., “Hormonal effects of the 300 μg norethisterone (NET) minipill. 1. Daily steroid levels in 43 subjects during a pretreatment cycle and during the second month of NET administration,” Contraception 1980; 21: pp. 87-113). TVUS measurements of the diameter of the largest FLS (mean of two directions) were performed using a Voluson E8 Expert device (GE Medical Systems). Serum FSH, LH, E2, P and SHBG concentrations were determined by validated chemiluminescent microparticle immunoassays (Abbott, Longford, Ireland). All pharmacodynamic parameters were evaluated descriptively.

[2] = test system: healthy, cyclic women; assay: Vaginal bleeding pattern (daily record); conditions: excluding the first 7 treatment days
Protocol: (§2) The tablets prepared in Example 1 were tested in a single-center, open-label, adaptive design study to evaluate the influence on hormonal and ovarian function and vaginal bleeding pattern of different higher dosages of LNG administered once daily for 28 days over two consecutive treatment cycles in healthy, cyclic women.
Throughout the study, subjects kept a daily record of vaginal bleeding. During the treatment period, they also documented the time of study medication intake.

[3] = test system: healthy, cyclic women; assay: Adverse events and tolerability
Protocol: At every visit, the subjects were questioned for adverse events and use of concomitant medication. Safety laboratory and pregnancy tests were performed at regular intervals during the study. Physical examinations were performed at screening and end of study.

[4] = test system: healthy, cyclic women; assay: Ovarian activity according the Hoogland-Skouby score during two 28-day treatment periods
Protocol: as §2
The first tested dosage was 0.095 mg per day. The choice of subsequent dosages depended on the occurrence of ovulations in the previous treatment groups. The study was stopped when the lowest dosage completely inhibiting ovulation was identified, and one higher and one lower dosage were investigated.
(§3) Subjects started study medication intake on the first day of menstrual bleeding after the pre-treatment cycle. One tablet was taken orally, around the same time every morning, during 56 consecutive days. Study visits were planned every three (±1) days from treatment day 3 (±1) until 27 (±1) and from day 31 (±1) until day 55 (±1). At each visit the diameter of the largest follicle-like structure (FLS) and serum follicle-stimulating hormone (FSH), luteinizing hormone (LH), estradiol (E2) and P concentrations were measured.
The primary outcome parameter was ovarian activity according the Hoogland-Skouby score (Table 1), determined for each 28-day treatment period (Hoogland H J, Skouby S O. “Ultrasound evaluation of ovarian activity under oral contraceptives,” Contraception 1993; 47: pp. 583-90).
as §1

[5] = test system: healthy, cyclic women; assay: Diameter of the largest follicle-like structure (FLS) by transvaginal ultrasonography
Protocol: as §2, §3, §1

[6] = LNG 0.095 mg per day, end of study (on average 22 days after last treatment)
[7] = LNG 0.095 mg per day, treatment day 55 ± 1
[8] = LNG 0.115 mg per day, end of study (on average 22 days after last treatment)
[9] = LNG 0.115 mg per day, treatment day 55 ± 1
[10] = LNG 0.135 mg per day, end of study (on average 22 days after last treatment)
[11] = LNG 0.135 mg per day, treatment day 55 ± 1
[12] = LNG 0.095 mg per day, treatment period 1
[13] = LNG 0.095 mg per day, treatment period 2
[14] = LNG 0.115 mg per day, treatment period 1
[15] = LNG 0.115 mg per day, treatment period 2
[16] = LNG 0.135 mg per day, treatment period 1
[17] = LNG 0.135 mg per day, treatment period 2
[18] = LNG 0.095 mg per day, entire treatment period
[19] = LNG 0.115 mg per day, entire treatment period
[20] = LNG 0.135 mg per day, entire treatment period

Number of days with bleeding or spotting during treatment, mean (±SD) ([2]; LNG 0.095 mg per day): 12.3 (±8.6) days
Number of days with bleeding or spotting during treatment, median ([2]; LNG 0.095 mg per day): 11.5 days
Number of days with bleeding or spotting during treatment, mean (±SD) ([2]; LNG 0.115 mg per day): 14.5 (±9.4) days
Number of days with bleeding or spotting during treatment, median ([2]; LNG 0.115 mg per day): 14.5 days
Number of days with bleeding or spotting during treatment, mean (±SD) ([2]; LNG 0.135 mg per day): 16.0 (±11.5) days
Number of days with bleeding or spotting during treatment, median ([2]; LNG 0.135 mg per day): 13.0 days
SMILES: C#C[C@]1(O)CC[C@H]2[C@@H]3CCC4=CC(=O)CC[C@@H]4[C@H]3CC[C@@]21CC (racemic) [LNG, levonorgestrel]
SHBG, Mean ± SD [1, 6]: 49.9 ± 17.4 nmol/L
SHBG, Median [1, 6]: 47.7 nmol/L
SHBG, Mean ± SD [1, 7]: 27.7 ± 10.6 nmol/L
SHBG, Median [1, 7]: 25.5 nmol/L
SHBG, Mean ± SD [1, 8]: 48.1 ± 20.1 nmol/L
SHBG, Median [1, 8]: 46.7 nmol/L
SHBG, Mean ± SD [1, 9]: 23.9 ± 12.1 nmol/L
SHBG, Median [1, 9]: 18.9 nmol/L
SHBG, Mean ± SD [1, 10]: 58.6 ± 28.5 nmol/L
SHBG, Median [1, 10]: 47.8 nmol/L
SHBG, Mean ± SD [1, 11]: 24.0 ± 9.5 nmol/L
SHBG, Median [1, 11]: 23.7 nmol/L
Suppression of SHBG concentrations ([1]; all treatment groups, end of treatment period 2): approximately 60%
n acne events, possibly IMP related ([3]; 0.095 mg LNG, n subjects 30): 3
n acne events, possibly IMP related ([3]; 0.115 mg LNG, n subjects 29): 4
n acne events, possibly IMP related ([3]; 0.135 mg LNG, n subjects 29): 4
Tolerability of the study medication ([3]; LNG 0.095, 0.115 or 0.135 mg per day for 56 days): well tolerated
Subjects with Hoogland-Skouby score 1 (No activity), % [4, 12]: 3.7%
Subjects with Hoogland-Skouby score 2 (Potential activity), % [4, 12]: 29.6%
Subjects with Hoogland-Skouby score 3 (Non-active FLS), % [4, 12]: 3.7%
Subjects with Hoogland-Skouby score 4 (Active FLS), % [4, 12]: 55.6%
Subjects with Hoogland-Skouby score 5 (LUF), % [4, 12]: 0%
Subjects with Hoogland-Skouby score 6 ('Ovulation'), % [4, 12]: 7.4%
Subjects with Hoogland-Skouby score 1 (No activity), % [4, 13]: 0%
Subjects with Hoogland-Skouby score 2 (Potential activity), % [4, 13]: 24.0%
Subjects with Hoogland-Skouby score 3 (Non-active FLS), % [4, 13]: 0%
Subjects with Hoogland-Skouby score 4 (Active FLS), % [4, 13]: 76.0%
Subjects with Hoogland-Skouby score 5 (LUF), % [4, 13]: 0%
Subjects with Hoogland-Skouby score 6 ('Ovulation'), % [4, 13]: 0%
Subjects with Hoogland-Skouby score 1 (No activity), % [4, 14]: 3.7%
Subjects with Hoogland-Skouby score 2 (Potential activity), % [4, 14]: 22.2%
Subjects with Hoogland-Skouby score 3 (Non-active FLS), % [4, 14]: 3.7%
Subjects with Hoogland-Skouby score 4 (Active FLS), % [4, 14]: 70.4%
Subjects with Hoogland-Skouby score 5 (LUF), % [4, 14]: 0%
Subjects with Hoogland-Skouby score 6 ('Ovulation'), % [4, 14]: 0%
Subjects with Hoogland-Skouby score 1 (No activity), % [4, 15]: 3.85%
Subjects with Hoogland-Skouby score 2 (Potential activity), % [4, 15]: 23.1%
Subjects with Hoogland-Skouby score 3 (Non-active FLS), % [4, 15]: 7.7%
Subjects with Hoogland-Skouby score 4 (Active FLS), % [4, 15]: 65.4%
Subjects with Hoogland-Skouby score 5 (LUF), % [4, 15]: 0%
Subjects with Hoogland-Skouby score 6 ('Ovulation'), % [4, 15]: 0%
Subjects with Hoogland-Skouby score 1 (No activity), % [4, 16]: 4.0%
Subjects with Hoogland-Skouby score 2 (Potential activity), % [4, 16]: 32.0%
Subjects with Hoogland-Skouby score 3 (Non-active FLS), % [4, 16]: 0%
Subjects with Hoogland-Skouby score 4 (Active FLS), % [4, 16]: 64.0%
Subjects with Hoogland-Skouby score 5 (LUF), % [4, 16]: 0%
Subjects with Hoogland-Skouby score 6 ('Ovulation'), % [4, 16]: 0%
Subjects with Hoogland-Skouby score 1 (No activity), % [4, 17]: 4.0%
Subjects with Hoogland-Skouby score 2 (Potential activity), % [4, 17]: 24.0%
Subjects with Hoogland-Skouby score 3 (Non-active FLS), % [4, 17]: 4.0%
Subjects with Hoogland-Skouby score 4 (Active FLS), % [4, 17]: 68.0%
Subjects with Hoogland-Skouby score 5 (LUF), % [4, 17]: 0%
Subjects with Hoogland-Skouby score 6 ('Ovulation'), % [4, 17]: 0%
Lowest dosage at which no ovulation occurred (lowest effective dosage) ([4]; once daily oral, two 28-day treatment periods, 0.095, 0.115 and 0.135 mg tested): 0.115 mg per day
Maximum FLS diameter, Mean ± SD ([5]; LNG 0.095 mg per day, BMI < 30 kg/m^2, entire treatment period): 22.5 ± 8.2 mm
Maximum FLS diameter, Mean ± SD ([5]; LNG 0.095 mg per day, BMI ≥ 30 kg/m^2, entire treatment period): 20.6 ± 6.9 mm
Maximum FLS diameter, Mean ± SD [5, 18]: 22.1 ± 7.9 mm
Maximum FLS diameter, Median [5, 18]: 22.5 mm
Maximum FLS diameter, Mean ± SD [5, 12]: 20.0 ± 8.6 mm
Maximum FLS diameter, Median [5, 12]: 20.6 mm
Maximum FLS diameter, Mean ± SD [5, 13]: 20.5 ± 7.5 mm
Maximum FLS diameter, Median [5, 13]: 20.2 mm
Maximum FLS diameter, Mean ± SD ([5]; LNG 0.115 mg per day, BMI < 30 kg/m^2, entire treatment period): 19.8 ± 7.5 mm
Maximum FLS diameter, Mean ± SD ([5]; LNG 0.115 mg per day, BMI ≥ 30 kg/m^2, entire treatment period): 27.9 ± 4.4 mm
Maximum FLS diameter, Mean ± SD [5, 19]: 21.4 ± 7.7 mm
Maximum FLS diameter, Median [5, 19]: 20.8 mm
Maximum FLS diameter, Mean ± SD [5, 14]: 20.4 ± 7.9 mm
Maximum FLS diameter, Median [5, 14]: 20.3 mm
Maximum FLS diameter, Mean ± SD [5, 15]: 19.9 ± 7.5 mm
Maximum FLS diameter, Median [5, 15]: 20.8 mm
Maximum FLS diameter, Mean ± SD ([5]; LNG 0.135 mg per day, BMI < 30 kg/m^2, entire treatment period): 18.4 ± 5.0 mm
Maximum FLS diameter, Mean ± SD ([5]; LNG 0.135 mg per day, BMI ≥ 30 kg/m^2, entire treatment period): 19.0 ± 7.1 mm
Maximum FLS diameter, Mean ± SD [5, 20]: 18.5 ± 5.3 mm
Maximum FLS diameter, Median [5, 20]: 18.1 mm
FLS diameter in one subject with possible abnormal ovulation ([5]; LNG 0.135 mg per day, one subject (BMI 20.4 kg/m^2), treatment day 3): 12.3 mm
Maximum FLS diameter, Mean ± SD [5, 16]: 16.6 ± 5.7 mm
Maximum FLS diameter, Median [5, 16]: 13.9 mm
Maximum FLS diameter, Mean ± SD [5, 17]: 17.4 ± 5.0 mm
Maximum FLS diameter, Median [5, 17]: 16.8 mm
